ChEMBL document CHEMBL5113380, “Functionalized quinoxalinones as privileged structures with broad-ranging pharmacological activities” (Eur J Med Chem, 2022)
In brackets after ≈: the same amount, converted by molar mass. Values belong to the compound of their own block, whether it stands above or below them.

What was measured:
[1] = biological target: T1, Group 10 secretory phospholipase A2 (Homo sapiens, UniProt O15496); assay: Inhibition of human PLA2G10
T1 sequence (O15496 whole entry): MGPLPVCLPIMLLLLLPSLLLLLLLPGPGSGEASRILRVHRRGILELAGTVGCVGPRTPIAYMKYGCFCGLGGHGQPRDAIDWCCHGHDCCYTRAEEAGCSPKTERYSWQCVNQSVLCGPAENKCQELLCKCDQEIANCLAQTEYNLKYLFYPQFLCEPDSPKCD

[2] = biological target: T2, Phospholipase A2, membrane associated (Homo sapiens, UniProt P14555); assay: Inhibition of human PLA2G2A
T2 sequence (P14555 whole entry): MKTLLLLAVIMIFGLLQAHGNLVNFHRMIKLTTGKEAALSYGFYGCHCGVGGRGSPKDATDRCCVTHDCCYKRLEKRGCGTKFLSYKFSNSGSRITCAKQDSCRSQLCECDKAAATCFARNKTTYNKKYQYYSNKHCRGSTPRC

[3] = biological target: Phospholipase A2, major isoenzyme (Sus scrofa, UniProt P00592); assay: Inhibition of porcine PLA2G1B
Sequence of Phospholipase A2, major isoenzyme (P00592 whole entry): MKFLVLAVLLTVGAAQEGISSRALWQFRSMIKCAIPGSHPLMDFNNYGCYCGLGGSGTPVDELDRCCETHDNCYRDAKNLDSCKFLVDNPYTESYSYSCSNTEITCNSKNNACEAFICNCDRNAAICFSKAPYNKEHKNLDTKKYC

Phospholipase A2 group V = biological target: T3, Phospholipase A2 group V (Homo sapiens, UniProt P39877); assay: Inhibition of human PLA2G5
T3 sequence (P39877 whole entry): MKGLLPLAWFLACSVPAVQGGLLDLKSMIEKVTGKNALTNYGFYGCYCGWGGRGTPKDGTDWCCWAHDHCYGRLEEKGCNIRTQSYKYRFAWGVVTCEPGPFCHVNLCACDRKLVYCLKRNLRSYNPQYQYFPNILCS

[4] = biological target: T4, Group XIIA secretory phospholipase A2 (Homo sapiens, UniProt Q9BZM1); assay: Inhibition of human PLA2G12A
T4 sequence (Q9BZM1 whole entry): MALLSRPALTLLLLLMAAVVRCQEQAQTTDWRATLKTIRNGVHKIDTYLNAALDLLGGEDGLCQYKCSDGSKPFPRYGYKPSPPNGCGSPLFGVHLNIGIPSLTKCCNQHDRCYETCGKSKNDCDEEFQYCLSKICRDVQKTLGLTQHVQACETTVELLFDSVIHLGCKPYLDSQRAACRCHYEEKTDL

Alpha amylase = biological target: T5, Alpha amylase (Homo sapiens, UniProt P0DUB6); assay: Inhibition of alpha-amylase (unknown origin)
T5 sequence (P0DUB6 whole entry): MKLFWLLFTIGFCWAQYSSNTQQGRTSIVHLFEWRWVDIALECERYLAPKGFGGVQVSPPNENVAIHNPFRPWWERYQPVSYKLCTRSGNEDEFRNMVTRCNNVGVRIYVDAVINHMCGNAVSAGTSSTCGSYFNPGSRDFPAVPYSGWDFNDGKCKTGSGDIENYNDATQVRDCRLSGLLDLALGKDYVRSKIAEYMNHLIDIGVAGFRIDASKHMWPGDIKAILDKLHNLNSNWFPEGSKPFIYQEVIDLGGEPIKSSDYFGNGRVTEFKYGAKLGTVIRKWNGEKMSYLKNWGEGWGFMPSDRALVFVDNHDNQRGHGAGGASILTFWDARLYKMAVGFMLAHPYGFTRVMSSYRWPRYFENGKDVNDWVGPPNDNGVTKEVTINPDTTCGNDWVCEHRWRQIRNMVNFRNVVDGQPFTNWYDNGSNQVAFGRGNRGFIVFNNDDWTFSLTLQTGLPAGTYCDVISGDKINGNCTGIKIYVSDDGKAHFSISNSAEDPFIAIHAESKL

Anopheles sp. [5] = assay: Larvicidal activity against Anopheles at 0.1 ug/ml; assay type: functional; details: dose 0.1 µg/ml
Anopheles sp. [6] = assay: Larvicidal activity against Anopheles at 0.5 ug/ml; assay type: functional; details: dose 0.5 µg/ml
Anopheles sp. [7] = assay: Larvicidal activity against Anopheles at 0.25 ug/ml; assay type: functional; details: dose 0.25 µg/ml
Anopheles sp. [8] = assay: Larvicidal activity against Anopheles at 1 ug/ml; assay type: functional; details: dose 1.0 µg/ml
[9] = Inhibition of Escherichia coli topoisomerase 4
Streptococcus pneumoniae [10] = assay: Antibacterial activity against Streptococcus pneumoniae; assay type: functional
Staphylococcus aureus = assay: Antibacterial activity against Staphylococcus aureus; assay type: functional
[11] = Lipophilicity, logD of compound; assay type: physicochemical; details: octanol/water
Escherichia coli [12] = assay: Antibacterial activity against Escherichia coli W3110; assay type: functional
Pseudomonas aeruginosa [13] = assay: Antibacterial activity against Pseudomonas aeruginosa; assay type: functional
[14] = Dissociation constant, pKa of the compound; assay type: physicochemical
[15] = biological target: Glutamate [NMDA] receptor; assay: Displacement of [3H]DCKA from NMDA receptor (unknown origin); assay type: protein-complex assay, Homo sapiens
[16] = biological target: Glutamate [NMDA] receptor (Homo sapiens) (UniProt Q05586+Q12879+Q13224+O15399+O60391+Q14957+Q8TCU5); assay: Displacement of [3H]DCKA from NMDA receptor (unknown origin) at 10 ng/ml relative to control; assay type: protein-complex assay; details: filed as antagonist
Klebsiella pneumoniae = assay: Antibacterial activity against Klebsiella pneumoniae; assay type: functional
Escherichia coli [17] = assay: Antibacterial activity against Escherichia coli; assay type: functional
[18] = biological target: Voltage-gated inwardly rectifying potassium channel KCNH2 (Homo sapiens, UniProt Q12809); assay: Inhibition of hERG; assay type: toxicity
Sequence of Voltage-gated inwardly rectifying potassium channel KCNH2 (Q12809 whole entry): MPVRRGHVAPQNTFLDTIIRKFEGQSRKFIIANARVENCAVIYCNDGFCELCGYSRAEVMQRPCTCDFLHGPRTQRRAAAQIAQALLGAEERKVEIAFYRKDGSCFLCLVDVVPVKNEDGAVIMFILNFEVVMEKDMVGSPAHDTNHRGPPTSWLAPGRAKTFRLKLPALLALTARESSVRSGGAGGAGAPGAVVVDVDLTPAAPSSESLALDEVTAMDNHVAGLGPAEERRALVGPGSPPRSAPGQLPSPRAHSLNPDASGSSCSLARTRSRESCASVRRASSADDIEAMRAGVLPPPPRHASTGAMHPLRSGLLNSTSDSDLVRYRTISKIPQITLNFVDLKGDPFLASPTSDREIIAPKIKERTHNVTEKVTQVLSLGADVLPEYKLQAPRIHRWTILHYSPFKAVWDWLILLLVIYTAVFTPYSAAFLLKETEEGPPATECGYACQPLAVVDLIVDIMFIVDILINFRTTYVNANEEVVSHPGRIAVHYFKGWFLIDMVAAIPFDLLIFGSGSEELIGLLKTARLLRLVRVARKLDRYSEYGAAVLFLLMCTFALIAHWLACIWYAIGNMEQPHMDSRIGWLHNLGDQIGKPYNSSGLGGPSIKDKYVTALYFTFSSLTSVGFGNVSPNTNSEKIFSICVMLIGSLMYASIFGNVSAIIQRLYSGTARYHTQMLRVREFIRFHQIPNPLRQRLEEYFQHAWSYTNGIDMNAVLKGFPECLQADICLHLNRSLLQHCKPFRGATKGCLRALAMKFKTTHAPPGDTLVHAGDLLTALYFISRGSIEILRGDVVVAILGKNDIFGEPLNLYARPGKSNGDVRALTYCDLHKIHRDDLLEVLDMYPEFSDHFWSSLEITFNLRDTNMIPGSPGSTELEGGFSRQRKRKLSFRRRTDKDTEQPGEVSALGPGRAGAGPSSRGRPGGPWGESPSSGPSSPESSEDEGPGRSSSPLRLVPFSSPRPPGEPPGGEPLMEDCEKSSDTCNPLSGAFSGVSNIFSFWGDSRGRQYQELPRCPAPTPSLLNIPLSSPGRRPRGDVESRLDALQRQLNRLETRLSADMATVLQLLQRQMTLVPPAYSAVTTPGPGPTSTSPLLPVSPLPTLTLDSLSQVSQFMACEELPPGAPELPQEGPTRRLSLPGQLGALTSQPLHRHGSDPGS

Pseudomonas aeruginosa [19] = assay: Antibacterial activity against Pseudomonas aeruginosa assessed as diameter zone of inhibition; assay type: functional
Streptococcus pneumoniae [20] = assay: Antibacterial activity against Streptococcus pneumoniae assessed as diameter zone of inhibition; assay type: functional
Mus musculus = assay: Antiinflammatory activity against mouse assessed as reduction in carragenan-induced paw edema at 25 mg/kg,po treated 1 hr prior to carrageenan challenge; assay type: functional; set-up: scale not given: the % may be the effect or the level left
HT-29 = assay: Antiproliferative activity against human HT-29 cells; assay type: functional, cell-based
SMMC-7721 = assay: Antiproliferative activity against human SMMC-7721 cells; assay type: functional, cell-based
HeLa = assay: Antiproliferative activity against human HeLa cells; assay type: functional, cell-based
Homo sapiens [21] = species on record: Homo sapiens; assay: Ratio IC50 for inhibition of JNK1 (unknown origin) over JNK3 (unknown origin)
Homo sapiens [22] = species on record: Homo sapiens; assay: Ratio IC50 for inhibition of JNK2 (unknown origin) over JNK3 (unknown origin)
[23] = biological target: T6, Glutamate receptor ionotropic, kainate 5 (Homo sapiens, UniProt Q16478); assay: Binding affinity to GluK5 receptor (unknown origin)
T6 sequence (Q16478 whole entry): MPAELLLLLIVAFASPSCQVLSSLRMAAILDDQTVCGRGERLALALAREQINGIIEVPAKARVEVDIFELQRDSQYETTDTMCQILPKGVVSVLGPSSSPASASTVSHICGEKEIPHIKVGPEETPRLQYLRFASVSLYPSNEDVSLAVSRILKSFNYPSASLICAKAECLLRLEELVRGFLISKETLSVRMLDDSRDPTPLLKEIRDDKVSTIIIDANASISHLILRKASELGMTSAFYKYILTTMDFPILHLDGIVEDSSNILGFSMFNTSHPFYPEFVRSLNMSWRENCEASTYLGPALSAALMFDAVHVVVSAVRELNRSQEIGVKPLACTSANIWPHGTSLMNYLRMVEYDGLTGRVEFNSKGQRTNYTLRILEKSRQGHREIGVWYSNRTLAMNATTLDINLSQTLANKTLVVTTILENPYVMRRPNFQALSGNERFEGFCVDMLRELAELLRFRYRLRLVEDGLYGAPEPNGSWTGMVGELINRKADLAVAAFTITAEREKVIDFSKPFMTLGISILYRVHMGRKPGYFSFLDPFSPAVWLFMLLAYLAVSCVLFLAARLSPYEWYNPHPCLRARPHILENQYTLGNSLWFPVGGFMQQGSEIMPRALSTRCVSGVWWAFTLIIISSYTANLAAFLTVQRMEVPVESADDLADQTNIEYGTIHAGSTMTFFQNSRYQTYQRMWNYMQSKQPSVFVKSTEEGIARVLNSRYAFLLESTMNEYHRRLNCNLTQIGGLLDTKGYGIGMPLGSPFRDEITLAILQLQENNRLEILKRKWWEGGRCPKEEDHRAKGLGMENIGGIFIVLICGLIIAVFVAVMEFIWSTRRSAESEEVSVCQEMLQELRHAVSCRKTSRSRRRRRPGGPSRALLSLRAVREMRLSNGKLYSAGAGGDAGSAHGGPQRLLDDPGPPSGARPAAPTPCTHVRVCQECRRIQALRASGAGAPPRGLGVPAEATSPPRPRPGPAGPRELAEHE

[24] = biological target: Glutamate receptor ionotropic AMPA (Homo sapiens, UniProt P42261+P42262+P42263+P48058); assay: Binding affinity to AMPA receptor (unknown origin); assay type: protein-complex assay
[25] = biological target: Glutamate receptor ionotropic, kainate 1 (Homo sapiens, UniProt P39086); assay: Binding affinity to GluK1 receptor (unknown origin)
Sequence of Glutamate receptor ionotropic, kainate 1 (P39086 whole entry): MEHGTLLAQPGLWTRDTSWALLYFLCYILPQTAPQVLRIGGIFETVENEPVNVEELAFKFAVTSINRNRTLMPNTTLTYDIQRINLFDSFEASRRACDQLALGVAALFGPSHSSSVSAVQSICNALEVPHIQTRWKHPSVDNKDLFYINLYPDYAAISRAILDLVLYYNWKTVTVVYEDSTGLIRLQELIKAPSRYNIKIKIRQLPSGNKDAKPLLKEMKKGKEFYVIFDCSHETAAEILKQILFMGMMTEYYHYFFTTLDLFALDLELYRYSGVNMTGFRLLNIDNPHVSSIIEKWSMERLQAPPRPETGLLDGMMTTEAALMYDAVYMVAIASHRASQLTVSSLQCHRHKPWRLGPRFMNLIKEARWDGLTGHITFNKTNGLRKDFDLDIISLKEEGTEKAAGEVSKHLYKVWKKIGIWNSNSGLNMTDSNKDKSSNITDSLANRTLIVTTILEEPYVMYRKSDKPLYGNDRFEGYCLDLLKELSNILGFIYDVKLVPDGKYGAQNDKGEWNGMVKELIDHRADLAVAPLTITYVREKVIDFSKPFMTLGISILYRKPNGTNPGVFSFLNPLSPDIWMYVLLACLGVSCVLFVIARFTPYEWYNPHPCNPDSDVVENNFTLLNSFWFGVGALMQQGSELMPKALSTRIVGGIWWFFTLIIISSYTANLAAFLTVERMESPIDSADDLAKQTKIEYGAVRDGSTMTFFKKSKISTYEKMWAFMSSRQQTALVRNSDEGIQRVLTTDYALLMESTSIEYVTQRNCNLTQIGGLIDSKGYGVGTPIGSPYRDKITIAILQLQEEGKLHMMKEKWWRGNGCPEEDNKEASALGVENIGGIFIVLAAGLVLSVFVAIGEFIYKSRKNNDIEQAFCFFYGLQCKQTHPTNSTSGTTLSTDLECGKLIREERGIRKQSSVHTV

Glutamate receptor 2 = Glutamate receptor 2 (Homo sapiens, UniProt P42262); assay: Binding affinity to GluA2 receptor (unknown origin)
Sequence of Glutamate receptor 2 (P42262 whole entry): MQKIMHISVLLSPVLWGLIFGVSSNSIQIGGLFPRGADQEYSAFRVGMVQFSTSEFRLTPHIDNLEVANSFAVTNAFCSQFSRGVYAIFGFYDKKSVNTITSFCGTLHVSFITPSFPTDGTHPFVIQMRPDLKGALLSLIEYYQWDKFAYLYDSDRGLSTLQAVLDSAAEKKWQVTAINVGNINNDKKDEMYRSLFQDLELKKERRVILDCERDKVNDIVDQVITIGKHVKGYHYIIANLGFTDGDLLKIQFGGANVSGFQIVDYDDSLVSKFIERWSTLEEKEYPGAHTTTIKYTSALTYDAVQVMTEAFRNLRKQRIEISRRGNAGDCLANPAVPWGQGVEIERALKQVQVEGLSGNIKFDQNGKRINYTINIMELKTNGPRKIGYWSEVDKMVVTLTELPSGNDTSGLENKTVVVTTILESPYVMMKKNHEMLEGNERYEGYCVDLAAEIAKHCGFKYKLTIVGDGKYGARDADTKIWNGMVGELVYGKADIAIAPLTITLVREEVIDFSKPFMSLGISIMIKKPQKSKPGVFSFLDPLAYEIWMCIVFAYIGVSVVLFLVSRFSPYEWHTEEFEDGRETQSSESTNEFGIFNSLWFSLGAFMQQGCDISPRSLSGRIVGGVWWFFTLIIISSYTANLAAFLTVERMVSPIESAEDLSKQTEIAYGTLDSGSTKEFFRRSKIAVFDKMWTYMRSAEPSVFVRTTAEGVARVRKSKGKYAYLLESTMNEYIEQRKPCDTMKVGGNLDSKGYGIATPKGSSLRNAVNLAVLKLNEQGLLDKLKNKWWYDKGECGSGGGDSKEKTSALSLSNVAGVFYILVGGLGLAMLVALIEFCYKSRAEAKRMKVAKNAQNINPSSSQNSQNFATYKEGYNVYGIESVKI

[26] = biological target: Glutamate receptor ionotropic, kainate 2 (Homo sapiens, UniProt Q13002); assay: Binding affinity to GluK2 receptor (unknown origin)
Sequence of Glutamate receptor ionotropic, kainate 2 (Q13002 whole entry): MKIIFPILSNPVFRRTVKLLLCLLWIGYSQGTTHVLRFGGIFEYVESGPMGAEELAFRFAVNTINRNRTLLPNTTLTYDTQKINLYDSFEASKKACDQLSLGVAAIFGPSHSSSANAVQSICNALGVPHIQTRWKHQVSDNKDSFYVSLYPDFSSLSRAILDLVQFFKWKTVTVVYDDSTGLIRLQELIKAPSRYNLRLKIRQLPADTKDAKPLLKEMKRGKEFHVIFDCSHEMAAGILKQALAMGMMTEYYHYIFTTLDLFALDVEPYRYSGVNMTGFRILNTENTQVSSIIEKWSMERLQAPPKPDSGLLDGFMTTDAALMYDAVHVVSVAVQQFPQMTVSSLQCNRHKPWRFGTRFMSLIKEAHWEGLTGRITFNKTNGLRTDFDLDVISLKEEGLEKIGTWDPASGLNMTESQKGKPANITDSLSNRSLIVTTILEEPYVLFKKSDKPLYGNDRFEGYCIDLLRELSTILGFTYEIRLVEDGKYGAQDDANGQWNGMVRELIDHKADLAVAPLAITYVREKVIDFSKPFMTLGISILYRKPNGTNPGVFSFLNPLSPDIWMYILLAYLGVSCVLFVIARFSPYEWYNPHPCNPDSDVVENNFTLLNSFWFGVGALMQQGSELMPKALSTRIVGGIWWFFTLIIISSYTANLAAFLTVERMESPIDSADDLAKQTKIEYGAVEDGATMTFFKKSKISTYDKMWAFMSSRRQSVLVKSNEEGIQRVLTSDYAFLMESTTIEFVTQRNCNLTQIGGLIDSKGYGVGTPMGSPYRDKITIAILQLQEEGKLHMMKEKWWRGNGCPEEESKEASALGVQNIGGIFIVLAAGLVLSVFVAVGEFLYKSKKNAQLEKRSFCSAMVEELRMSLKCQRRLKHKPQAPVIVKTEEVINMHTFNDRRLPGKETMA

[27] = Cytotoxicity against mock-infected human MT4 cells; assay type: toxicity, cell-based

Structure (SMILES): COc1ccc2nc(-c3ccccc3)c(=O)n(CC#N)c2c1
- Activity (Anopheles sp. [5]): 60%
- Activity (Anopheles sp. [6]): 66.7%
- Activity (Anopheles sp. [7]): 66.7%
- Activity (Anopheles sp. [8]): 73.7%

Structure (SMILES): O=c1[nH]c2ccccc2n2c(-c3ccc(Cl)c(Cl)c3)ccc12
- IC50 [1]: 2710 nM
- IC50 [2]: 1810 nM
- IC50 [3]: 14500 nM
- IC50 (Phospholipase A2 group V): 3040 nM
- IC50 [4]: 1410 nM
- IC50 (Alpha amylase): 431810 nM

Structure (SMILES): O=C1CN(C(=O)CCl)c2ccccc2N1
- diameter of the inhibition zone (DIZ) (Pseudomonas aeruginosa [19]): 15 mm
- diameter of the inhibition zone (DIZ) (Streptococcus pneumoniae [20]): 16 mm

Structure (SMILES): CC(C)Cc1ccc(C(C)C(=O)O)cc1 (stereo unspecified) [IBUPROFEN]
- Activity (Mus musculus): 39.3%

Structure (SMILES): COC(=O)c1ccc2c(c1)NCCN2Cc1cc(OC)c(OC)c(OC)c1
- IC50 (HT-29): 510 nM
- IC50 (SMMC-7721): 427 nM
- IC50 (HeLa): 194 nM

Structure (SMILES): O=c1[nH]c2ccc(Cl)c(Cl)c2nc1CBr
- CC50 [27]: 24000 nM

Structure (SMILES): C=Cn1c(=O)c(-c2ccccc2)nc2ccc(OC)cc21
- Activity (Anopheles sp. [5]): 80%
- Activity (Anopheles sp. [6]): 100%
- Activity (Anopheles sp. [7]): 100%
- Activity (Anopheles sp. [8]): 100%

More lines, main results first:

- IC50 [1]: 1050 nM
- IC50 [2]: 760 nM
- IC50 [3]: 13600 nM
- IC50 (Phospholipase A2 group V): 1530 nM
- IC50 [4]: 2580 nM
- IC50 (Alpha amylase): 806190 nM
Structure (SMILES): O=c1[nH]c2ccccc2n2c(-c3ccc([N+](=O)[O-])cc3[N+](=O)[O-])ccc12

- IC50 [9]: 2.2 nM
- MIC (Streptococcus pneumoniae [10]): 0.08 µg/mL (≈ 0.172 µM)
- MIC (Staphylococcus aureus): 0.03 µg/mL (≈ 0.0646 µM)
- logD [11]: 0.6
- MIC (Escherichia coli [12]): 0.13 µg/mL (≈ 0.28 µM)
- MIC (Pseudomonas aeruginosa [13]): 1 µg/mL (≈ 2.15 µM)
- pKa [14]: 5.56
Structure (SMILES): COc1ccc2ncc(=O)n(CCN3CCC(NCc4ccc5c(n4)NC(=O)CO5)CC3)c2c1

- Ki [15]: 6.6 nM
- Activity [16]: 79.3%
Structure (SMILES): O=C(CC1CCc2cc(Cl)cc3[nH]c(=O)c(=O)n1c23)Nc1ccccc1 (stereo unspecified)

- MIC (Klebsiella pneumoniae): 8 µg/mL (≈ 16.7 µM)
- MIC (Escherichia coli [17]): 0.5 µg/mL (≈ 1.04 µM)
- MIC90 (Escherichia coli [17]): 0.5 µg/mL (≈ 1.04 µM)
- IC50 [9]: 2 nM
- MIC (Staphylococcus aureus): 8 µg/mL (≈ 16.7 µM)
- logD [11]: -0.86
- MIC (Pseudomonas aeruginosa [13]): 1 µg/mL (≈ 2.09 µM)
- MIC90 (Pseudomonas aeruginosa [13]): 4 µg/mL (≈ 8.36 µM)
- pKa [14]: 7.66
Structure (SMILES): COc1cnc2ccc(=O)n(C[C@@H](N)[C@H]3CC[C@H](NCc4ccc5c(n4)NC(=O)CO5)CC3)c2c1
- IC50 [18]: > 333000 nM

- Ratio IC50 (Homo sapiens [21]): > 400
- Ratio IC50 (Homo sapiens [22]): > 400
Structure (SMILES): O=C1Nc2ccccc2N/C1=C\C(=O)c1cccc2ccccc12

- Ki [23]: 26400 nM
- Ki [24]: 960 nM
- Ki [25]: 1120 nM
- Ki (Glutamate receptor 2): 4120 nM
- Ki [26]: 908 nM
Structure (SMILES): O=C(Nn1c(=O)c(=O)[nH]c2cc(C(F)(F)F)c(F)cc21)c1ccccc1O

- IC50 (HT-29): 1480 nM
- IC50 (SMMC-7721): 1600 nM
- IC50 (HeLa): 693 nM
Structure (SMILES): COc1ccc2c(c1)[nH]c(=O)c(=O)n2Cc1cc(OC)c(OC)c(OC)c1
